From patent publication US20240336632A1, “NOVEL COMPOUND COMPRISING ESTER GROUP AND USES THEREOF” (priority 2021, published 2024) come the findings set out here.

Data set [1] relates to porcine liver esterase. Kind of data set: Esterase enzymatic assay (radio-TLC cleavage). The data set is classed as in vitro ADME. As to conditions: 37 C. The protocol: The in vitro metabolism studies were performed using 25 U/mL solutions of porcine liver esterase in PBS. [^131I]HIB (1), [^131I]IPH (2), or [^131I]HIB-ether (3) (3.7 MBq each) was also dissolved in PBS with 10% DMSO. Esterase (2.5 U) was then added to each radiotracer solution, and the solution was gently shaken at 37° C.
With these hypotheses in mind, we performed systematic mechanistic studies. First, we carried out an esterase enzymatic assay. All three radiotracers, [^131I]HIB, [^131I]IPH, and [^131I]HIB-ether, were incubated separately with esterase (Sigma Aldrich, St. Louis, MO, USA) at 37° C. in a 10% DMSO/PBS mixture, and the progress of the reactions was monitored for 24 h by radio-TLC (FIG. 3A).

Data set [2] is described as follows: In vitro metabolism with mouse liver microsome. The data set is classed as in vitro ADME. Conditions: 4 h incubation. As to the method: (§1) For the in vitro metabolic studies with mouse liver S9 fraction and microsome, 1-3 (3.7 MBq) were dissolved in PBS with 10% DMSO and mixed with the mouse liver S9 fraction (0.2 mg in 10 μL) or the microsome (0.2 mg in 10 μL) with NADPH (0.25 mM). The reaction was performed upon shaking at 550 rpm at 37° C. The hydrolysis rate of each radiotracer was measured by radio-TLC for up to 24 h.
For orientation: Liver microsomes are vesicles of endoplasmic reticulum, rich in cytochrome P450 enzymes.

A short description of data set [3]: In vitro metabolism with mouse liver S9 fraction. It is filed as in vitro ADME. Conditions: 4 h incubation. The protocol:
as §1

The nature of data set [4]: Ex vivo cleavage in liver homogenate. The protocol:
Ex vivo studies to determine the cleavage rates of the examined radiotracers in different organs were performed using the homogenates of mouse tissues collected from CT26 tumor models. Liver, spleen, and tumor tissues were collected and weighted. After the addition of ice-cold PBS solution at a ratio of 1:1 (w/w), the tissues were homogenized with a homogenizer (Ultra-Turrax, IKA, Selangor, Malaysia) under ice-cold conditions. The crude homogenate was then centrifuged at 2,000 g, and the sediment was discarded. Each supernatant (300 μL), referred to as tissue homogenate, was immediately mixed with each radiotracer (3.7 MBq) dissolved in PBS with 10% DMSO. The reaction was then performed upon shaking at 550 rpm at 37° C., and the hydrolysis rate of each radiotracer was measured by radio-TLC for up to 24 h. […] Urine and fecal samples were collected separately at 0.5, 1, 2, 4, 8, 16, and 24 h post-injection, and their radioactivity was measured with a dose calibrator (CRC-Ultra; Capintec, Florham Park, NJ, USA). […] The same urine sample was further analyzed by HPLC [Luna C8 column (4.6×50 mm, 5 μm), 0.1% TFA/H2O (solventA), and 0.1% TFA/acetonitrile (solvent B)] using a gradient of 10-100% B in 5 min and 10% B for 27 min, which continued for up to 45 min at a flow rate of 1 mL/min.

Data set [5] deals with normal BALB/c mice. Kind of data set: Urinary and fecal excretion of radioactive metabolites. It is filed as in vivo, mouse.
Data set [6] is described as follows: Ex vivo cleavage in spleen homogenate. Conditions: 4 h and 24 h. It is filed as in vitro ADME, mouse. From the text: Liver, spleen, and tumor tissues were collected and weighted.
Data set [7] can be described thus: Lipophilicity (log P) of the radiotracer. The data set is classed as physicochemical.
Data set [8] concerns orthotopic PANC-1/Luc+ pancreatic tumor BALB/c nude mice. Kind of data set: PET/CT imaging of orthotopic pancreatic tumor model. The data set is classed as in vivo. As to conditions: L4 at 24 h post-injection; FDG at 1 h post-injection, same mouse. As to the method:
The establishment of the tumor in the orthotopic pancreatic tumor models was confirmed at 13 days post-inoculation of PANC-1/Luc+ cells into the pancreas tail with bioluminescence imaging using D-luciferin (60 mg/kg). The next day, [^18F]FDG-PET/CT (FDG: fluorodeoxyglucose) imaging was performed at 1 h post-injection (7.4 MBq/mouse) for 20 min.
Two days after [^18F]FDG imaging, [^124I]L4 (6.3-9.3 MBq in 200 μL PBS) was administered into the tail vein of the same mouse and PET/CT images were acquired at 1, 4, and 24 h post-injection.

In the case of `CCCCCCCCCCCCCCCCOc1ccc(I)cc1` [[^131I]HIB-ether, 1-(hexadecyloxy)-4-[^124/131I]iodobenzene], the cleavage percentage amounted to 15.9% in data set [1] (4 h), 20.3% in data set [1] (24 h), 16.0% in data set [2] and 19.3% in data set [3]. Besides, the cleavage is 23% in data set [4] (4 h) and 25% in data set [4] (24 h).
One may read the log P as the decadic logarithm of the partition coefficient of the neutral form, usually between octanol and water. A low value points to a more hydrophilic compound. As for `CCCCCCCCCCCCCCCCOC(=O)c1ccc([131I])cc1` [[^131I]HIB], in data set [5] (after i.v. [131I]HIB-liposome), the “radioactivity in the feces relative to that in urine” value is on record as “less than 5%”. In data set [5] (urine 3 h post-injection, radio-TLC and HPLC), the “metabolite found in urine” value is 4-[^131I]iodobenzoic acid. Besides, the “cleavage rate lower than in the liver” value in data set [6] was about 18%. The “log P” value in data set [7] is 2.19±0.04. The values for the cleavage percentage in data set [2] and in data set [3] were 85.3% and 89.7%, respectively. The cleavage in data set [4] (4 h) was about 75%; in data set [4] (24 h), about 88%.
Take `CCCCCCCCCCCCCCCCC(=O)Oc1ccc([131I])cc1` [[^131I]IPH, 4-[^124/131I]iodophenyl heptadecanoate]: the “cleavage rate lower than in the liver” value in data set [6] is listed as about 18%. For the same molecule, the results for the cleavage percentage in data set [2] and in data set [3] were 87.3% and 91.3%, respectively. The cleavage in data set [4] (4 h) was about 75%; in data set [4] (24 h), about 88%.
In the case of fluorodeoxyglucose [[^18F]FDG], the “tumor detection in PET image” value in data set [8] is “the tumor could barely be detected”.
